This is an account of results in patent publication EP2951180B1, “2,6,7,8 SUBSTITUTED PURINES AS HDM2 INHIBITORS” (Merck Sharp & Dohme Corp., priority 2013, dated 2014).

The test has as its target T1, HDM2 (Homo sapiens, UniProt Q00987).
T1 construct: Thioredoxin (N); made in house; host or cells: E. coli strain BL21(DE3)Rosetta
The test can be described thus: HDM2 FRET assay (inhibition of binding of FITC labeled p53-pocket peptide to HDM2). The conditions noted are these: read-out: FRET IC50. In short, it runs like this:
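Compounds were tested in 10-point serial dilution against 0.5 nM recombinant HDM2 binding 3 nM fluorescein-labeled p53-pocket peptide. Detection used 0.25 nM terbium cryptate anti-6xHis antibody in PBS buffer containing 0.01% BSA and 0.01% Tween-20.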

The mark [1] stands for this setting: 0.5 nM HDM2 (residues 17 to 125), 3nM peptide, two hour incubation at room temperature.

Read-outs that look alike come from different tables or passages of the source.

T1 sequence (Q00987 17-125): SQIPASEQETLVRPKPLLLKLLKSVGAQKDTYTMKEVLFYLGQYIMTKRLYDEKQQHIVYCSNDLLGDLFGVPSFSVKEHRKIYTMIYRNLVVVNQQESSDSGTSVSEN

On to `C[C@@H](Nc1nc(C(=O)O)nc2nc(N3CCOC[C@H]3c3ccccc3)n(Cc3ccc(C(F)(F)F)cc3)c12)C1CCC1` [Example 9.50, 6-{[(1R)-1-cyclobutylethyl]amino}-8-[(3R)-3-phenylmorpholin-4-yl]-7-[4-(trifluoromethyl)benzyl]-7H-purine-2-carboxylic acid], for which the IC50 (Table 9) was determined as 1.76 nM.
`C[C@H]1CC[C@H](Cn2c(N3CCOC[C@H]3CF)nc3nc(-c4n[nH]c(=O)o4)nc(-c4cncc(Cl)c4)c32)CC1` [Example 16.139, 5-{6-(5-chloropyridin-3-yl)-8-[(3S)-3-(fluoromethyl)morpholin-4-yl]-7-[(trans-4-methylcyclohexyl)methyl]-7H-purin-2-yl}-1,3,4-oxadiazol-2(3H)-one]: the IC50 under setting [1] was determined as 37.1 nM.
Take `C[C@@H](Nc1nc(-c2noc(=O)[nH]2)nc2nc(NC(CO)c3ccccc3)n(C[C@H]3CC[C@H](C)CC3)c12)C1CCC1` (single isomer, unassigned) [Example 11.121]: the IC50 (Table 11) turned out to be 40.1 nM.
Take `COCC(c1ccccc1)c1nc2nc(-c3noc(=O)[nH]3)nc(N[C@H](C)C3CCC3)c2n1C[C@H]1CC[C@H](C)CC1` (single isomer, unassigned) [Example 21.42, 3-(6-{[(1R)-1-cyclobutylethyl]amino}-8-[(1S or R)-2-methoxy-1-phenylethyl]-7-[(trans-4-methylcyclohexyl)methyl]-7H-purin-2-yl)-1,2,4-oxadiazol-5(4H)-one]: for the setting “Table 21”, the IC50 is 3.41 nM.
For `C[C@@H](Nc1nc(-c2noc(=O)[nH]2)nc2nc(C(O)C3CCCC3)n(C[C@H]3CC[C@H](C)CC3)c12)C1CCC1` (stereo partly drawn) [Example 22.41, 3-(6-{[(1R)-1-cyclobutylethyl]amino}-8-[cyclopentyl(hydroxy)methyl]-7-[(trans-4-methylcyclohexyl)methyl] -7H-purin-2-yl)-1,2,4-oxadiazol-5(2H)-one], the IC50 (Table 22) is 1.21 nM.
Consider `CC(C)CC1CCCCN1c1nc2nc(C(=O)O)nc(N[C@H](C)C3CCC3)c2n1C[C@H]1CC[C@H](C)CC1` (stereo partly drawn) [Example 11.2, 6-(((R)-1-cyclobutylethyl)amino)-8-(2-isobutylpiperidin-1-yl)-7-((trans-4-methylcyclohexyl)methyl)-7H-purine-2-carboxylic acid], for which the IC50 (Table 11) was 1.82 nM.
As for `COC[C@H](Nc1nc2nc(-c3noc(=O)[nH]3)nc(-c3cccc(Cl)c3)c2n1C[C@H]1CC[C@H](C)CC1)c1ccccc1` [Example 16.85, 3-{6-(3-chlorophenyl)-8-{[(1R)-2-methoxy-1-phenylethyl]amino}-7-[(trans-4-methylcyclohexyl)methyl]-7H-purin-2-yl}-1,2,4-oxadiazol-5(4H)-one], the concentration for half-maximal inhibition (IC50) under setting [1] came to 2.87 nM.
With `CC(O)c1nc2nc(-c3noc(=O)[nH]3)nc(N[C@H](C)C3CCC3)c2n1C[C@H]1CC[C@H](C)CC1` (single isomer, unassigned) [Example 22.15], the IC50 (Table 22) stood at 45.1 nM.
Regarding `C[C@@H](Nc1nc(-c2noc(=O)[nH]2)nc2nc(C(C)(F)c3ccccc3)n(C[C@H]3CC[C@H](C)CC3)c12)C1CCC1` (single isomer, unassigned) [Example 22.77], for the setting “Table 22”, the IC50 stood at 2.95 nM.
As for `Cc1cccc(-c2nc3nc(C(=O)O)nc(NC4CCCCC4C)c3n2Cc2ccc(C(F)(F)F)cc2)c1` (stereo not shown) [Example 6.8, 6-[(2-methylcyclohexyl)amino]-8-(3-methylphenyl)-7-[4-(trifluoromethyl)benzyl]-7H-purine-2-carboxylic acid], the IC50 (Table 6) turned out to be 228 nM.
With `CC(c1nc2nc(C(=O)O)nc(N[C@H](C)C3CCC3)c2n1Cc1ccc(C(F)(F)F)cc1)N(C)c1ccccc1` (stereo partly drawn) [Example 10.10, 6-(((R)-1-cyclobutylethyl)amino)-8-(1-(methyl(phenyl)amino)ethyl)-7-(4-(trifluoromethyl)benzyl)-7H-purine-2-carboxylic acid], the IC50 (Table 10) came out at 68.8 nM.
For `C[C@@H](Nc1nc(C(=O)O)nc2nc(N3CCOCC3)n(Cc3ccc(Cl)cc3)c12)C1CC1` [Example 9.9, 7-(4-chlorobenzyl)-6-{[(1R)-1-cyclopropylethyl]amino}-8-morpholin-4-yl-7H-purine-2-carboxylic acid], the IC50 (Table 9) is 574 nM.
For `C[C@H]1CC[C@H](Cn2c(N3CCOC[C@H]3CO)nc3nc(-c4noc(=O)[nH]4)nc(-c4cccc(Cl)c4)c32)CC1` [Example 16.45, 3-{6-(3-chlorophenyl)-8-[(3R)-3-(hydroxymethyl)mor pholin-4-yl]-7-[(trans-4-methylcyclohexyl)methyl]-7H-purin-2-yl}-1,2,4-oxadiazol-5(4H)-one], the IC50 under setting [1] turned out to be 47.5 nM.
Take `COc1ncc(Cl)cc1-c1nc(-c2noc(=O)[nH]2)nc2nc(C3(c4ccccc4)CCC3)n(C[C@H]3CC[C@H](C)CC3)c12` [Example 20.14, 3-[6-(5-chloro-2-methoxypyridin-3-yl)-7-[(trans-4-methylcyclohexyl)methyl]-8-(1-phenylcyclobutyl)-7H-purin-2-yl]-1,2,4-oxadiazol-5(4H)-one]: the IC50 (Table 20) was 6.11 nM.
For `Cc1cccc(-c2nc3nc(C(=O)O)nc(N[C@H](C)c4cccc(Cl)c4)c3n2Cc2ccc(C(F)(F)F)cc2)c1` [Example 6.27, 6-{[(1R)-1-(3-chlorophenyl)ethyl]amino}-8-(3-methylphenyl)-7-[4-(trifluoromethyl)benzyl]-7H-purine-2-carboxylic acid], the half-inhibitory concentration (IC50) (Table 6) came out at 2360 nM.
Consider `CCC(CO)c1nc2nc(-c3noc(=O)[nH]3)nc(N[C@H](C)C3CCC3)c2n1C[C@H]1CC[C@H](C)CC1` (stereo partly drawn) [Example 22.82, 3-(6-{[(1R)-1-cyclobutylethyl]amino}-8-[1-(hydroxymethyl)propyl]-7-[(trans-4-methylcyclohexyl)methyl]-7H-purin-2-yl)-1,2,4-oxadiazol-5(4H)-one], for which the IC50 (Table 22) was 10.1 nM.
Consider `C[C@@H](Nc1nc(-c2noc(=O)[nH]2)nc2nc(N3CCOC[C@H]3c3ccncc3)n(C[C@H]3CC[C@H](C)CC3)c12)C1CCC1` [Example 11.145, 3-(6-{[(1R)-1-cyclobutylethyl]amino}-7-[(trans-4-methylcyclohexyl)methyl]-8-[(3R)-3-pyridin-4-ylmorpholin-4-yl]-7H-purin-2-yl)-1,2,4-oxadiazol-5(4H)-one], for which the IC50 (Table 11) was 1.31 nM.
As to `CC1CCCC(c2nc(-c3n[nH]c(=O)o3)nc3nc(N4CCOC[C@H]4c4ccccc4)n(C[C@H]4CC[C@H](C)CC4)c23)C1` (stereo partly drawn) [Example 16.170, 5-{6-(3-methylcyclohexyl)-7-[(trans-4-methylcyclohexyl)methyl]-8-[(3R)-3-phenylmorpholin-4-yl]-7H-purin-2-yl} - 1,3,4-oxadiazol-2(3H)-one], the IC50 under setting [1] was 8.3 nM.
Consider `C[C@@H](Nc1nc(-c2noc(=O)[nH]2)nc2nc(N3CCCCC3c3nccn3C)n(Cc3ccc(C(F)(F)F)cc3)c12)C1CCC1` (stereo partly drawn) [Example 9.106, 3-(6-{[(1R)-1-cyclobutylethyl]amino}-8-[2-(1-methyl-1H-imidazol-2-yl)piperidin-1-yl]-7-[4-(trifluoromethyl)benzyl]-7H-purin-2-yl)-1,2,4-oxadiazol-5(4H)-one], for which, under “Table 9”, the IC50 was found to be 11.5 nM.
Take `C[C@H]1CC[C@H](Cn2c(N3CCO[C@@H]4CCC[C@H]43)nc3nc(-c4noc(=O)[nH]4)nc(-c4cccc(Cl)c4)c32)CC1` [Example 16.82, 3-{6-(3-chlorophenyl)-8-[(4aR,7aR)-hexahydrocyclopenta [b][1,4]oxazin-4(4aH)-yl]-7-[(trans-4-methylcyclohexyl)methyl]-7H-purin-2-yl}-1,2,4-oxadiazol-5(4H)-one]: the IC50 under setting [1] came to 1.1 nM.
Take `C[C@@H](Nc1nc(C(=O)NS(C)(=O)=O)nc2nc(N3CCOC[C@H]3c3ccccc3)n(C[C@H]3CC[C@H](C)CC3)c12)C1CCC1` [Example 12.18, 6-{[(1R)-1-cyclobutylethyl]amino}-7-[(trans-4-methylcyclohexyl)methyl]-N-(methylsulfonyl)-8-[(3R)-3-phenylmorpholin-4-yl]-7H-purine-2-carboxamide]: under setting [1], the IC50 is 0.585 nM.
`C[C@H]1CC[C@H](Cn2c(S(=O)(=O)C3CCCC3)nc3nc(-c4n[nH]c(=O)o4)nc(-c4cncc(Cl)c4)c32)CC1` [Example 19.5, 5-{6-(5-chloropyridin-3-yl)-8-(cyclopentylsulfonyl)-7-[(trans-4-methylcyclohexyl)methyl]-7H-purin-2-yl}-1,3,4-oxadiazol-2(3H)-one]: the IC50 (Table 19) stood at 5.83 nM.
For the compound `C[C@@H](Nc1nc(-c2noc(=O)[nH]2)nc2nc(N3CCN(S(C)(=O)=O)C[C@H]3c3ccccc3)n(C[C@H]3CC[C@H](C)CC3)c12)C1CCC1` [Example 17.13, 3-(6-{[(1R)-1-cyclobutylethyl]amino}-7-[(trans-4-methylcyclohexyl)methyl]-8-[(2R)-4-(methylsulfonyl)-2-phenylpiperazin-1-yl]-7H-purin-2-yl)-1,2,4-oxadiazol-5(4H)-one], the IC50 (Table 17.2) turned out to be 1.86 nM.
For `CC(C)CC1CCN(c2nc3nc(-c4noc(=O)[nH]4)nc(N[C@H](C)C4CCC4)c3n2Cc2ccc(C(F)(F)F)cc2)C1` (stereo partly drawn) [Example 9.92, 3-(6-{[(1R)-1-cyclobutylethyl]amino}-8-[3-(2-methylpropyl)pyrrolidin-1-yl]-7-[4-(trifluoromethyl)benzyl]-7H-purin-2-yl)-1,2,4-oxadiazol-5(4H)-one], the IC50 (Table 9) stood at 478 nM.
As to `C[C@H]1OCCN(c2nc3nc(-c4n[nH]c(=O)o4)nc(-c4cccc(Cl)c4)c3n2C[C@H]2CC[C@H](C)CC2)[C@@H]1c1ccccc1` [Example 16.142, 5-{6-(3-chlorophenyl)-7-[(trans-4-methylcyclohexyl)methyl]-8-[(2R,3R)-2-methyl-3-phenylmorpholin-4-yl]-7H-purin-2-yl} - 1,3,4-oxadiazol-2(3H)-one], the IC50 under setting [1] came to 1.5 nM.
